Each molecule was assayed against T1, human GPR119 (Homo sapiens, UniProt Q8TDV5) (assay: Measurement of GPR119 signaling (cAMP assay) in cells stably transfected with human GPR119). Conditions: cAMP stimulation; read-out: GPR119 HumC EC50.
T1 sequence (Q8TDV5 1-308 limits assumed): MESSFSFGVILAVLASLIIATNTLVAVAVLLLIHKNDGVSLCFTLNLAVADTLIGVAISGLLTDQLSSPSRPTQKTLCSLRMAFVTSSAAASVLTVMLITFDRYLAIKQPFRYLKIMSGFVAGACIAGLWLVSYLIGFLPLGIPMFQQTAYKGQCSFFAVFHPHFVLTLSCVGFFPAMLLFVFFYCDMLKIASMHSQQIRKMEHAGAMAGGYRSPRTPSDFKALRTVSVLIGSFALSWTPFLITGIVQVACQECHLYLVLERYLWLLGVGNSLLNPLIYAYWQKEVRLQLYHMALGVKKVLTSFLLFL
Type: cell-based

Row | SMILES | EC50
1 | Cc1cc(OCC[C@@H]2C[C@@H]2C2CCN(c3nc(C(C)C)no3)CC2)ccc1CC(=O)N1CCC1 [Example 102] | 1.1 nM
2 | CC1(OC(=O)N2CCC([C@H]3C[C@H]3CCOc3ccc(CC(=O)N4CCC4)c(C#N)c3)CC2)CC1 [Example 70] | 2.7 nM

Same assay, conditions: stated in the example text; cAMP stimulation, human GPR119; read-out: GPR119 Human EC50

Row | SMILES | EC50
3 | CCCCc1nnc(N2CCC([C@H]3C[C@H]3CCOc3ccc(S(C)(=O)=O)cn3)CC2)o1 [Example 247, 2-(2-{(1S,2R)-2-[1-(5-butyl-1,3,4-oxidiazol-2-yl)piperidin-4-yl]cyclopropyl}ethoxy)-5-(methylsulfonyl)pyridine] | 28 nM
4 | CS(=O)(=O)c1ccc(OCC[C@@H]2C[C@@H]2C2CCN(C(=O)CC3CCCCC3)CC2)nc1 [Example 85, 2-(2-{(1S,2R)-2-[1-(cyclohexylacetyl)piperidin-4-yl]cyclopropyl}ethoxy)-5-(methylsulfonyl)pyridine] | 11.8 nM
5 | O=C(CC1CCCCC1)N1CCC([C@H]2C[C@H]2CCOc2ccc(-n3cnnn3)cc2)CC1 [Example 77, 1-(cyclohexylacetyl)-4-((1R,2S)-2-{2-[4-(1H-tetrazol-1-yl)phenoxy]ethyl}cyclopropyl)piperidine] | 11.8 nM
6 | Cc1cc(-n2cnnn2)cnc1OCC[C@@H]1C[C@@H]1C1CCN(c2nc(C(C)C)no2)CC1 [Example 225, 2-(2-{(1S,2R)-2-[1-(3-isopropyl-1,2,4-oxidiazol-5-yl)piperidin-4-yl]cyclopropyl}ethoxy]-3-methyl-5-(1H-tetrazol-1-yl)pyridine] | 0.1 nM

Same assay, conditions: table column; cAMP stimulation, human GPR119; read-out: GPR119 Human EC50

Row | SMILES | EC50
7 | CC(C)c1noc(N2CCC([C@H]3C[C@H]3CCOc3ccc(CC(=O)N(C)C4CCS(=O)(=O)C4)c(F)c3)CC2)n1 (some centres unmarked) [Example 162] | 2 nM
8 | CS(=O)(=O)c1ccc(OCC[C@@H]2C[C@@H]2C2CCN(c3noc(CCC(F)(F)F)n3)CC2)nc1 [Example 237] | 18 nM
9 | CS(=O)(=O)c1ccc(OCC[C@@H]2C[C@@H]2C2CCN(c3nnc(C4CCC4)o3)CC2)nc1 [Example 248] | 39 nM
10 | CC1CC1c1nc(N2CCC([C@H]3C[C@H]3CCOc3ccc(S(C)(=O)=O)cn3)CC2)no1 (some centres unmarked) [Example 239] | 7 nM
11 | CC(C)c1noc(N2CCC([C@H]3C[C@H]3CCOc3ccc(CC(=O)N4CCC(C)(O)C4)c(F)c3)CC2)n1 (some centres unmarked) [Example 174] | 11.4 nM
12 | CC(C)c1noc(N2CCC([C@H]3C[C@H]3CCOc3ccc(CC(=O)N(C)CC4CCC(=O)N4)c(F)c3)CC2)n1 (some centres unmarked) [Example 170] | 7.9 nM
13 | COCc1noc(N2CCC([C@H]3C[C@H]3CCOc3ccc(CC(=O)NC4CC4)c(F)c3)CC2)n1 [Example 198] | 13 nM
14 | O=C(CC1CC2C=CC1C2)N1CCC([C@H]2C[C@H]2CCOc2ccc(-n3cnnn3)cc2)CC1 (some centres unmarked) [Example 84] | 3.7 nM
15 | CC(C)c1noc(N2CCC([C@H]3C[C@H]3CCOc3ccc(Cc4nncs4)c(F)c3)CC2)n1 [Example 257] | 1.4 nM
16 | CC(C)c1noc(N2CCC([C@H]3C[C@H]3CCOc3ccc(CC(=O)N(C)C4CCCC4)c(F)c3)CC2)n1 [Example 154] | 5 nM
17 | CC(C)c1noc(N2CCC([C@H]3C[C@H]3CCOc3ccc(CC(=O)N4CCn5ccnc5C4)c(F)c3)CC2)n1 [Example 180] | 4.9 nM
18 | Cc1nc(C#N)cc(OCC[C@@H]2C[C@@H]2C2CCN(C(=O)OC3(C)CC3)CC2)n1 [Example 49] | 2 nM
19 | COCc1noc(N2CCC([C@H]3C[C@H]3CCOc3cc(F)c(CC(=O)N4CCC4)c(F)c3)CC2)n1 [Example 205] | 1.2 nM
20 | CC1(COC(=O)N2CCC([C@H]3C[C@H]3CCOc3ccc(S(C)(=O)=O)cn3)CC2)CCC1 [Example 26] | 0.6 nM
21 | Cc1noc(N2CCC([C@H]3C[C@H]3CCOc3ccc(S(C)(=O)=O)cn3)CC2)n1 [Example 213] | 11 nM
22 | Cc1cc(CC(=O)N2CCC(C)CC2)cnc1OCC[C@@H]1C[C@@H]1C1CCN(c2nc(C(C)C)no2)CC1 [Example 259] | 18 nM
23 | CC(C)c1noc(N2CCC([C@H]3C[C@H]3CCOc3ccc(CC(=O)NC4CC4)c(F)c3)CC2)n1 [Example 150] | 2.1 nM
24 | COCc1noc(N2CCC([C@H]3C[C@H]3CCOc3ccc(CC(=O)N4CCOCC4)c(F)c3)CC2)n1 [Example 202] | 9.8 nM
25 | CS(=O)(=O)c1ccc(OCC[C@@H]2C[C@@H]2C2CCN(c3nnc(C4CCCC4)o3)CC2)nc1 [Example 249] | 32 nM

Row | SMILES | EC50
26 | CC(C)OC(=O)N1CCC([C@H]2C[C@H]2CCOc2cc(F)c(S(C)(=O)=O)c(F)c2)CC1 [Example 39] | 6.6 nM
27 | COC1CN(C(=O)Cc2ccc(OCC[C@@H]3C[C@@H]3C3CCN(c4nc(C(C)C)no4)CC3)cc2F)C1 [Example 141] | 0.93 nM
28 | O=C(CC1CCC1)N1CCC([C@H]2C[C@H]2CCOc2ccc(-n3cnnn3)cc2)CC1 [Example 81] | 15 nM
29 | CC(C)Cc1nc(N2CCC([C@H]3C[C@H]3CCOc3ccc(S(C)(=O)=O)cn3)CC2)no1 [Example 235] | 6.5 nM
30 | CC(C)(C)COC(=O)N1CCC([C@H]2C[C@H]2CCOc2ccc(-n3cnnn3)cc2)CC1 [Example 9] | 15 nM
31 | CC(C)c1noc(N2CCC([C@H]3C[C@H]3CCOc3ccc(C(=O)C4CC4)c(F)c3)CC2)n1 [Example 117] | 0.6 nM
32 | Cc1nc(C#N)cc(OCC[C@@H]2C[C@@H]2C2CCN(C(=O)CCC(F)(F)F)CC2)n1 [Example 96] | 43 nM
33 | CC(C)c1noc(N2CCC([C@H]3C[C@H]3CCOc3ccc(CC(=O)N4CCc5ccsc5C4)c(F)c3)CC2)n1 [Example 173] | 2.2 nM
34 | COCc1noc(N2CCC([C@H]3C[C@H]3CCOc3ccc(CC(=O)N(C)C)c(F)c3)CC2)n1 [Example 201] | 5.9 nM
35 | CCOCc1nc(N2CCC([C@H]3C[C@H]3CCOc3ccc(S(C)(=O)=O)cn3)CC2)no1 [Example 246] | 7.9 nM
36 | CC(C)c1noc(N2CCC([C@H]3C[C@H]3CCOc3ccc(S(C)(=O)=O)cc3F)CC2)n1 [Example 123] | 3.8 nM
37 | CC(C)c1noc(N2CCC([C@H]3C[C@H]3CCOc3ccc(CC(=O)N(C)C4CCOC4)c(F)c3)CC2)n1 (some centres unmarked) [Example 161] | 1.1 nM
38 | CC(C)c1noc(N2CCC([C@H]3C[C@H]3CCOc3ccc(-n4cnnn4)cn3)CC2)n1 [Example 231] | 0.4 nM
39 | CS(=O)(=O)c1ccc(OCC[C@@H]2C[C@@H]2C2CCN(c3noc(CC4CC4)n3)CC2)nc1 [Example 243] | 9.8 nM
40 | CCS(=O)(=O)c1ccc(OCC[C@@H]2C[C@@H]2C2CCN(C(=O)OC3(C)CC3)CC2)cc1F [Example 42] | 2.5 nM
41 | CC(C)(C)CC(=O)N1CCC([C@H]2C[C@H]2CCOc2ccc(S(C)(=O)=O)c(F)c2)CC1 [Example 95] | 5.4 nM
42 | CC(C)c1noc(N2CCC([C@H]3C[C@H]3CCOc3ccc(S(C)(=O)=O)c(F)c3)CC2)n1 [Example 119] | 1.3 nM
43 | COCc1noc(N2CCC([C@H]3C[C@H]3CCOc3ccc(-n4cncn4)cc3)CC2)n1 [Example 223] | 7.2 nM
44 | COCc1noc(N2CCC([C@H]3C[C@H]3CCOc3ncc(-n4cnnn4)cc3C)CC2)n1 [Example 226] | 2.3 nM

Source: patent US8957062B2, “Substituted cyclopropyl compounds, compositions containing such compounds and methods of treatment” (Merck Sharp & Dohme Corp., priority 2011, dated 2015)
